Laboratory results taken from patent US8980820B2, “Fatty acid binding proteins as drug targets for endocannabinoids” (The Research Foundation for the State University of New York, priority 2010, dated 2015).
“Also recorded” adds a separate entry of the source.

Tests used:
COS7-FAAH-eGFP cells = experiment: [14C]AEA cellular uptake and hydrolysis in COS7-FAAH-eGFP cells; format: cell-based, African green monkey
Experimental: (§1) COS-7 and N18TG2 cells were grown in DMEM supplemented with 10% fetal bovine serum, 100 U/ml penicillin/streptomycin, 2 mM L-glutamine, and 1 mM sodium pyruvate in a humidified incubator containing 95% air and 5% CO2. Transfections were carried out using Lipofectamine 2000 (Invitrogen, Carlsbad, Calif.) according to the manufacturer's instructions. For stable cell selection, forty eight hours after transfection cells were expanded in medium containing 750 μg/ml geneticin (Invitrogen, Carlsbad, Calif.). Four weeks later, stable cells were subjected to flow cytometry at the Flow Cytometry Core Facility in Stony Brook University and cells expressing identical levels of the indicated FAAH-eGFP fusion proteins were collected and expanded.
(§2) Cells were plated at ˜90% confluency in 35 mm dishes, washed twice in DMEM and preincubated with the desired pharmacological compounds or vehicle controls (EtOH or DMSO). The cells were washed twice in DMEM and subsequently incubated for 5 min, 10 or 3 sec, with 750 μl [^14C]AEA (100 nM) that was pre-equilibrated for 75 min in medium containing 0.15% BSA. The equilibration step is necessary to avoid uneven distribution of the radiotracer and to ensure that it is stable in solution pre-bound to BSA. Less than 1% of AEA was hydrolyzed during this pre-equilibration step (data not shown). Following the incubation, 750 μl of ice-cold DMEM+0.15% BSA was added to the plates, the media separated from cells, which were then washed with DMEM+0.15% BSA to remove non-specifically bound AEA. The cells were scraped three times with 400 μl of ice-cold 2 mM EDTA in PBS and chloroform:methanol (1:1) added to the media and cells and the phases separated by centrifugation. The resulting aqueous (containing [^14C]ethanolamine) and organic (containing intact [^14C]AEA) phases were counted by liquid scintillation counting. [^14C]AEA uptake was determined by summing the production of [^14C]ethanolamine in the media and cells with intact cellular [^14C]AEA. Hydrolysis of [^14C]AEA was quantified by production of [^14C]ethanolamine in the media and cells. Blanks consisting of either untransfected COS-7 cells or N18TG2 cells treated with 100 nM of the FAAH inhibitor URB597 were subtracted from all conditions.

N18TG2 cells = experiment: [14C]AEA cellular uptake and hydrolysis in N18TG2 cells; format: cell-based, mouse
Experimental: as §1, §2

FAAH [1] = biological target: T1, FAAH (Rattus norvegicus, UniProt P97612); experiment: FAAH enzyme assay, COS-7-FAAH-eGFP homogenates; format: biochemical; details: 100 μM inhibitor, 100 μM [14C]AEA, p>0.05
T1 construct: N-terminal transmembrane helix (residues 1-29) in red, residues 30-579 in black, and eGFP in green; expressed in transfected cells
T1 sequence (P97612 1-579): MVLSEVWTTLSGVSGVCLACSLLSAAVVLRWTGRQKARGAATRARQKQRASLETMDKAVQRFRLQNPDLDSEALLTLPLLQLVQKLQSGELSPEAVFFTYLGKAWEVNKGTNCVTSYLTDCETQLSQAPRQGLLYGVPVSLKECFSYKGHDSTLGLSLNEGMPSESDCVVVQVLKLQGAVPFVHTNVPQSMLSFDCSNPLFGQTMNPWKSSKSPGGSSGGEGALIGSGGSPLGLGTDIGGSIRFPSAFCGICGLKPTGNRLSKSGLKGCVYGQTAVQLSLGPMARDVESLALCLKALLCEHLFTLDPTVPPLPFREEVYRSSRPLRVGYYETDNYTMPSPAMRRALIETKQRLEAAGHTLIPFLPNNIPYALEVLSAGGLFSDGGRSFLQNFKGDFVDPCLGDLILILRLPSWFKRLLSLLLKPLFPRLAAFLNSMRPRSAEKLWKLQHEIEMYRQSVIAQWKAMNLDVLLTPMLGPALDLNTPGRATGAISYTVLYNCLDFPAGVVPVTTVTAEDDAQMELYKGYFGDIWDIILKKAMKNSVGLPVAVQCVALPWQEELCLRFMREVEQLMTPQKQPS
Experimental: (§3) FAAH activity assays were performed as previously described. Briefly, cell homogenates were incubated with 100 μM AEA+0.1 μCi [^14C]AEA in Tris-HCl (pH 9) containing 0.1% BSA. For activity analysis, time and total protein were adjusted to maintain substrate conversion at approximately 10%. […] AEA (100 μM) for 1 or 30 min, respectively. Reactions were stopped by the addition of two volumes of 1:1 chloroform:methanol and the phases separated by centrifugation. The methanol phase (containing [^14C]ethanolamine) was sampled and quantified using a Beckman LS 6500 scintillation counter.

FAAH [2] = biological target: T2, FAAH (Mus musculus, UniProt O08914); experiment: FAAH enzyme assay, N18TG2 homogenates; format: biochemical; details: 100 μM inhibitor, 100 μM [14C]AEA, p>0.05
T2 construct: endogenous in cells; host or cells: N18TG2 mouse neuroblastoma cells, used as homogenate
T2 sequence (O08914 1-579): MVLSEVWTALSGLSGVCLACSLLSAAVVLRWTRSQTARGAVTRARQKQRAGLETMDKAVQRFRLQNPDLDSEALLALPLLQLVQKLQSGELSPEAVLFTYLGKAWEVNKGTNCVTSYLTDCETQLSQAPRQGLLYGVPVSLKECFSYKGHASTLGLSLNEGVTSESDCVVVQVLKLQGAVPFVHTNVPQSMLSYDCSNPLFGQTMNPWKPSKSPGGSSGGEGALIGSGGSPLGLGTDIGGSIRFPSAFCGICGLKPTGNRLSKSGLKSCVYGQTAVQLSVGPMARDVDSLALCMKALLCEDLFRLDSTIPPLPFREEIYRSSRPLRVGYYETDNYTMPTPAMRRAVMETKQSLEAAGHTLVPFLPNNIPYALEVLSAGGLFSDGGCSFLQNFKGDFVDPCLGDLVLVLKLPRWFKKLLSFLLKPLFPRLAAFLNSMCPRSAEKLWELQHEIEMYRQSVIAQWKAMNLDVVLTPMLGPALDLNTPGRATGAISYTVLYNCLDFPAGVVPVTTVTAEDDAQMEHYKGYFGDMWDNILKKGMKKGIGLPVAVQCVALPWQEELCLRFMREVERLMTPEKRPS
Experimental: as §3

[3] = stability of AEA during pre-equilibration in medium with BSA; format: physicochemical; details: 75 min in medium containing 0.15% BSA, data not shown
Experimental: as §2, with “Blanks consisting of either untransfected COS-7 cells or N18TG2 cells treated with 100 nM of the FAAH inhibitor URB597 were subtracted from all conditions.” left out

[4] = 100 μM, 5 min, vs vehicle, p<0.05
[5] = oleic acid 100 μM, 5 min incubation, [14C]AEA 100 nM
[6] = 20-100 μM BMS309403, dose-dependent

Row | Structure (SMILES) | [14C]AEA hydrolysis, effect in words (COS7-FAAH-eGFP cells; [4]) | [14C]AEA uptake, effect in words (COS7-FAAH-eGFP cells; [4]) | reduction of [14C]AEA uptake (COS7-FAAH-eGFP cells; [5]) [%] | [14C]AEA hydrolysis, effect in words (N18TG2 cells; [4]) | [14C]AEA uptake, effect in words (N18TG2 cells; [4]) | reduction of [14C]AEA uptake (N18TG2 cells; [5]) [%] | [14C]AEA hydrolysis (FAAH activity) by homogenates (FAAH [1]) | [14C]AEA hydrolysis (FAAH activity) by homogenates (FAAH [2]) | intracellular hydrolysis of [14C]AEA following uptake (COS7-FAAH-eGFP cells; 3 sec, 20-100 μM) | levels of cell associated [14C]AEA (COS7-FAAH-eGFP cells; 3 sec, data not shown) | maximal inhibition of [14C]AEA uptake (COS7-FAAH-eGFP cells; [6]) [%] | [14C]AEA hydrolysis (metabolism), effect in words (COS7-FAAH-eGFP cells; 20-100 μM, vs vehicle) | [14C]AEA uptake, effect in words (COS7-FAAH-eGFP cells; 20-100 μM, vs vehicle) | intracellular hydrolysis of [14C]AEA following uptake (N18TG2 cells; 3 sec, 20-100 μM) | levels of cell associated [14C]AEA (N18TG2 cells; 3 sec, data not shown) | maximal inhibition of [14C]AEA uptake (N18TG2 cells; [6]) [%] | [14C]AEA hydrolysis (metabolism), effect in words (N18TG2 cells; 20-100 μM, vs vehicle) | [14C]AEA uptake, effect in words (N18TG2 cells; 20-100 μM, vs vehicle) | AEA hydrolyzed during pre-equilibration step [3]
1 | CCCCCCCC/C=C\CCCCCCCC(=O)O [oleic acid] | significantly reduced | significantly reduced | 25 | significantly reduced | significantly reduced | 53 | did not inhibit; also recorded: not inhibited | did not inhibit; also recorded: not inhibited | – | – | – | – | – | – | – | – | – | – | –
2 | CCc1c(-c2ccccc2)c(-c2ccccc2)nn1-c1ccccc1-c1cccc(OCC(=O)O)c1 [BMS309403] | – | – | – | – | – | – | did not inhibit; also recorded: not inhibited | did not inhibit; also recorded: not inhibited | reduced | without affecting | 48 | proportionally and significantly reduced; also recorded: significantly decreased | significantly decreased | reduced | without affecting | 57 | proportionally and significantly reduced; also recorded: significantly decreased | significantly decreased | –
3 | CCCCC/C=C\C/C=C\C/C=C\C/C=C\CCCC(=O)NCCO [AEA, arachidonoyl ethanolamide] | – | – | – | – | – | – | – | – | – | – | – | – | – | – | – | – | – | – | Less than 1%
